“Also recorded” adds a separate entry of the source.
Key:
mKCa1.1 = assay type: cell-based, mice; details: HEK 293 cells
Text: (§1) We, therefore, aimed at testing the pharmacological activity of sCm39 on a battery of various potassium and sodium ion channels. Among the tested channels were six members of human voltage-gated K^+ (hKV) channels from Shaker family, hKV1.1-hKV1.6 (Figure 3A–F) and three members of Ca^2+-activated potassium channel; hKCa2.2 (SK2, Figure 3I), the small-conductance Ca^2+-activated channel; hKCa3.1 (IKCa1, SK4. Figure 3J), the intermediate-conductance Ca^2+-activated channel expressed in T lymphocytes; and mKCa1.1 (BK, Slo1, MaxiK, Figure 3H), the large-conductance voltage- and Ca^2+-activated channel of mice. In addition, we also screened the effect of Cm39 on hKV11.1 (hERG1, Figure 3G), a voltage-gated cardiac K^+ channel, and two human voltage-gated sodium (hNaV) channels, hNaV1.4 (Figure 3K) and hNaV1.5 (Figure 3L), expressed in skeletal and cardiac muscles, respectively. These ion channels were heterologously expressed in the CHO or HEK cell lines except for KV1.3. Human peripheral T lymphocytes. They were stimulated with Phytohemagglutinin A (PHA) to increase the KV1.3 channel expression, and Ca^2+-free intracellular solution was used to avoid KCa3.1 channel activation. Appropriate depolarization protocols were used to record ionic currents in voltage-clamped cells (see Figure 3 insets and Material and Methods for details). Freshly dissolved sCm39 in extracellular solution was applied at 1 µM concentration on the cell using a custom-built micro-perfusion system at ~200 µL/min flow rate. […]
(§2) Whole-cell currents were recorded in voltage-clamped cells following standard protocols by using a Multiclamp 700B amplifier connected to a computer with Axon Digidata1440 digitizer and for data acquisition, Clampex 10.7 software was used (Molecular Devices). […]

hKV1.3 = assay type: cell-based, human
Text: We, therefore, aimed at testing the pharmacological activity of sCm39 on a battery of various potassium and sodium ion channels. Among the tested channels were six members of human voltage-gated K^+ (hKV) channels from Shaker family, hKV1.1-hKV1.6 (Figure 3A–F) and three members of Ca^2+-activated potassium channel; hKCa2.2 (SK2, Figure 3I), the small-conductance Ca^2+-activated channel; hKCa3.1 (IKCa1, SK4. Figure 3J), the intermediate-conductance Ca^2+-activated channel expressed in T lymphocytes; and mKCa1.1 (BK, Slo1, MaxiK, Figure 3H), the large-conductance voltage- and Ca^2+-activated channel of mice. In addition, we also screened the effect of Cm39 on hKV11.1 (hERG1, Figure 3G), a voltage-gated cardiac K^+ channel, and two human voltage-gated sodium (hNaV) channels, hNaV1.4 (Figure 3K) and hNaV1.5 (Figure 3L), expressed in skeletal and cardiac muscles, respectively. These ion channels were heterologously expressed in the CHO or HEK cell lines except for KV1.3. Human peripheral T lymphocytes. They were stimulated with Phytohemagglutinin A (PHA) to increase the KV1.3 channel expression, and Ca^2+-free intracellular solution was used to avoid KCa3.1 channel activation. Appropriate depolarization protocols were used to record ionic currents in voltage-clamped cells (see Figure 3 insets and Material and Methods for details). Freshly dissolved sCm39 in extracellular solution was applied at 1 µM concentration on the cell using a custom-built micro-perfusion system at ~200 µL/min flow rate.
For the measurement of KV1.x, mKCa1.1 and NaV1.x currents the extracellular solution was composed of (in mM) 145 NaCl, 5 KCl, 2.5 CaCl2, 1 MgCl2, 10 HEPES and 5.5 glucose, pH 7.35. In the HK-150 and Na^+-free bath solution bath all Na^+ was substituted by K^+ or Choline-Cl, respectively, other ingredients remained unchanged. […]
Whole-cell currents were recorded in voltage-clamped cells following standard protocols by using a Multiclamp 700B amplifier connected to a computer with Axon Digidata1440 digitizer and for data acquisition, Clampex 10.7 software was used (Molecular Devices).

hNaV1.4 = experiment: Whole-cell patch-clamp, block of NaV1.4 current; assay type: cell-based, human; details: HEK 293 cells
Text: as §1, with “lymphocytes.” for “lymphocytes. They were stimulated with Phytohemagglutinin A (PHA) to increase the KV1.3 channel expression, and Ca^2+-free intracellular solution was used to avoid KCa3.1 channel activation. Appropriate depolarization protocols were used to record ionic currents in voltage-clamped cells (see Figure 3 insets and Material and Methods for details). Freshly dissolved sCm39 in extracellular solution was applied at 1 µM concentration on the cell using a custom-built micro-perfusion system at ~200 µL/min flow rate.”
as §2

Structure (SMILES): CC[C@H](C)[C@@H]1NC(=O)[C@H](C)NC(=O)[C@H](C)NC(=O)[C@H](CCCCN)NC(=O)[C@@H]2CSSC[C@@H](C(=O)N[C@@H](Cc3ccc(O)cc3)C(=O)N[C@@H](Cc3ccc(O)cc3)C(=O)O)NC(=O)[C@H](CCCCN)NC(=O)[C@@H]3CSSC[C@H](NC(=O)[C@H](CCC(=O)O)NC(=O)[C@H](CO)NC(=O)[C@H](CO)NC(=O)[C@H](CO)NC(=O)[C@H](CCCCN)NC(=O)[C@@H](NC(=O)[C@H](CCCCN)NC(=O)[C@H](Cc4c[nH]cn4)NC(=O)[C@H](CC(N)=O)NC(=O)[C@@H](NC(=O)[C@H](Cc4ccccc4)NC(=O)[C@@H](N)[C@@H](C)O)[C@@H](C)CC)CSSC[C@H](NC(=O)[C@H](CCCCN)NC(=O)CNC(=O)[C@H](CO)NC(=O)[C@H](C)NC(=O)[C@H](CCCNC(=N)N)NC(=O)CNC1=O)C(=O)N[C@@H]([C@@H](C)CC)C(=O)N[C@@H](CC(N)=O)C(=O)N[C@@H](CO)C(=O)N[C@@H]([C@@H](C)O)C(=O)N3)C(=O)N[C@@H](CC(C)C)C(=O)N1CCC[C@H]1C(=O)N[C@@H](C)C(=O)N2 [Cm39]
- inhibition (in words) (mKCa1.1; 1 μM): does not inhibit; also recorded: did not show any effect
- decrease in current (mKCa1.1; 1 µM, 3−5 min, n = 3−5): < 3%
- decrease in current (hKV1.3; 1 µM, PHA-activated human peripheral T lymphocytes, 3−5 min, n = 3−5): < 3%
- inhibition (in words) (hKV1.3; 1 μM, human peripheral T lymphocytes): does not inhibit; also recorded: did not show any effect
- inhibition (in words) (hNaV1.4; 1 μM): does not inhibit; also recorded: did not show any effect
- decrease in current (hNaV1.4; 1 µM, 3−5 min, n = 3−5): < 3%

— article PMC9866218, “Characterization and Chemical Synthesis of Cm39 (α-KTx 4.8): A Scorpion Toxin That Inhibits Voltage-Gated K^+ Channel KV1.2 and Small- and Intermediate-Conductance Ca^2+-Activated K^+ Channels KCa2.2 and KCa3.1” (Toxins, 2023)
